Measurements as given in patent US11542470B2, “Methods of differentiating stem cell-derived proprioceptors” (MEMORIAL SLOAN-KETTERING CANCER CENTER, priority 2016, dated 2023).

Key:
rodent GSK3β homologs = conditions: cited from earlier work
human stem cells = assay: Differentiation of human stem cells into sensory neuron subtypes in E8/E6 medium (TrkA, TrkB, TrkC); assay type: cell-based; conditions: CHIR99021 3 μM, 1.5 μM and 0.75 μM from day 2 through day 12, FIG. 3B
Procedure: An E8/E6 medium was used to differentiate human stem cells into sensory neurons, including nociceptors, proprioceptors, and mechanoceptors. […] On day 4, day 8, day 12, and day 16, the cells were measured for CD49d expression. […] On day 16 and day 20, cells were stained for BRN3A, TUJ1, and DAPI. […] TrkA is a nociceptor marker, TrkB is a mechanoreceptor marker, and TrkC is a proprioceptor marker.

For `Cc1c[nH]c(-c2cnc(NCCNc3ccc(C#N)cn3)nc2-c2ccc(Cl)cc2Cl)n1` [CHIR99021, 6-(2-(4-(2,4-dichlorophenyl)-5-(4-methyl-1H-imidazol-2-yl)pyrimidin-2-ylamino)ethylamino)nicotinonitrile], the “IC50 values against rodent GSK3β homologs” value (rodent GSK3β homologs) is listed as “nanomolar” and the “generation of the three sensory neuron subtypes (nociceptors, proprioceptors, mechanoreceptors)” value (human stem cells) is listed as “generated at similar efficiencies”.
